In publication PMC10924921, “Mi-2β promotes immune evasion in melanoma by activating EZH2 methylation” (Nature Communications, 2024):

What was measured:
Assay in all cases: biochemical
Design in all cases: KINOMEscan active-site competition binding panel (468 kinase assays), per cent of control at 1000 nM
Conditions in all cases: KINOMEscan per cent of control (binding competition); read-out: Percent Control
PIK3CA(E542K) = PIK3CA(E542K) (Homo sapiens, UniProt P42336, E542K)
Description: (§1) Figure S7 / Percent Control

YSK1 = target: T1, YSK1 (Homo sapiens, UniProt O00506)
T1 construct: gene STK25
Description: as §1

AKT1 = AKT1 (Homo sapiens, UniProt P31749)
Description: as §1

LTK = LTK (Homo sapiens, UniProt P29376)
Description: as §1

AXL = AXL (Homo sapiens, UniProt P30530)
Description: as §1

MAP4K5 = MAP4K5 (Homo sapiens, UniProt Q9Y4K4)
Description: as §1

FLT3(ITD,F691L) = FLT3(ITD,F691L) (Homo sapiens, UniProt P36888, F691L/ITD)
Description: as §1

MAST1 = MAST1 (Homo sapiens, UniProt Q9Y2H9)
Description: as §1

RIPK1 = RIPK1 (Homo sapiens, UniProt Q13546)
Description: as §1

PRKCQ = PRKCQ (Homo sapiens, UniProt Q04759)
Description: as §1

RET(M918T) = RET(M918T) (Homo sapiens, UniProt P07949, M918T)
Description: as §1

PIK3CA(H1047Y) = PIK3CA(H1047Y) (Homo sapiens, UniProt P42336, H1047Y)
Description: as §1

ABL2 = ABL2 (Homo sapiens, UniProt P42684)
Description: as §1

S6K1 = target: T2, S6K1 (Homo sapiens, UniProt P23443)
T2 construct: gene RPS6KB1
Description: as §1

[1] = target: T3, JAK1(JH2domain-pseudokinase) (Homo sapiens, UniProt P23458)
T3 construct: JH2domain-pseudokinase
Description: as §1

PDPK1 = PDPK1 (Homo sapiens, UniProt O15530)
Description: as §1

TIE2 = target: T4, TIE2 (Homo sapiens, UniProt Q02763)
T4 construct: gene TEK
Description: as §1

[2] = target: T5, RSK3(Kin.Dom.1-N-terminal) (Homo sapiens, UniProt Q15349)
T5 construct: gene RPS6KA2; Kin.Dom.1-N-terminal
Description: as §1

KIT(V559D) = KIT(V559D) (Homo sapiens, UniProt P10721, V559D)
Description: as §1

PRKCH = PRKCH (Homo sapiens, UniProt P24723)
Description: as §1

PAK7 = target: T6, PAK7 (Homo sapiens, UniProt Q9P286)
T6 construct: gene PAK5
Description: as §1

ULK3 = ULK3 (Homo sapiens, UniProt Q6PHR2)
Description: as §1

ASK1 = target: T7, ASK1 (Homo sapiens, UniProt Q99683)
T7 construct: gene MAP3K5
Description: as §1

PAK2 = PAK2 (Homo sapiens, UniProt Q13177)
Description: as §1

Chain of PAK2 (Q13177 whole entry): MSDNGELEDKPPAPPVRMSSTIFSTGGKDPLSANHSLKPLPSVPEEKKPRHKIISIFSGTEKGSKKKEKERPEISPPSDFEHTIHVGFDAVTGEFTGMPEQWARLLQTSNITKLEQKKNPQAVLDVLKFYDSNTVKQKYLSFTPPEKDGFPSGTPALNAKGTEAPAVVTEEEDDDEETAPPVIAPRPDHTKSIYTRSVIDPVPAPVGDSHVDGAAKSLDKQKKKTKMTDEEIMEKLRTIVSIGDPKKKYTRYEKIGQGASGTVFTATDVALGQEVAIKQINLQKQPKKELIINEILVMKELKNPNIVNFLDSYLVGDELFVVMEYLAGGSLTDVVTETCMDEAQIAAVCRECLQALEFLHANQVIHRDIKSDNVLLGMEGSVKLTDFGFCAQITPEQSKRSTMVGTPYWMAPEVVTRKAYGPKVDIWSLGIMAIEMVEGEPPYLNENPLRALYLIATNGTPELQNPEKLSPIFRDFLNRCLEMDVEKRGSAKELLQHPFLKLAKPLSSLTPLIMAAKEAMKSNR
Chain of ABL2 (P42684 whole entry): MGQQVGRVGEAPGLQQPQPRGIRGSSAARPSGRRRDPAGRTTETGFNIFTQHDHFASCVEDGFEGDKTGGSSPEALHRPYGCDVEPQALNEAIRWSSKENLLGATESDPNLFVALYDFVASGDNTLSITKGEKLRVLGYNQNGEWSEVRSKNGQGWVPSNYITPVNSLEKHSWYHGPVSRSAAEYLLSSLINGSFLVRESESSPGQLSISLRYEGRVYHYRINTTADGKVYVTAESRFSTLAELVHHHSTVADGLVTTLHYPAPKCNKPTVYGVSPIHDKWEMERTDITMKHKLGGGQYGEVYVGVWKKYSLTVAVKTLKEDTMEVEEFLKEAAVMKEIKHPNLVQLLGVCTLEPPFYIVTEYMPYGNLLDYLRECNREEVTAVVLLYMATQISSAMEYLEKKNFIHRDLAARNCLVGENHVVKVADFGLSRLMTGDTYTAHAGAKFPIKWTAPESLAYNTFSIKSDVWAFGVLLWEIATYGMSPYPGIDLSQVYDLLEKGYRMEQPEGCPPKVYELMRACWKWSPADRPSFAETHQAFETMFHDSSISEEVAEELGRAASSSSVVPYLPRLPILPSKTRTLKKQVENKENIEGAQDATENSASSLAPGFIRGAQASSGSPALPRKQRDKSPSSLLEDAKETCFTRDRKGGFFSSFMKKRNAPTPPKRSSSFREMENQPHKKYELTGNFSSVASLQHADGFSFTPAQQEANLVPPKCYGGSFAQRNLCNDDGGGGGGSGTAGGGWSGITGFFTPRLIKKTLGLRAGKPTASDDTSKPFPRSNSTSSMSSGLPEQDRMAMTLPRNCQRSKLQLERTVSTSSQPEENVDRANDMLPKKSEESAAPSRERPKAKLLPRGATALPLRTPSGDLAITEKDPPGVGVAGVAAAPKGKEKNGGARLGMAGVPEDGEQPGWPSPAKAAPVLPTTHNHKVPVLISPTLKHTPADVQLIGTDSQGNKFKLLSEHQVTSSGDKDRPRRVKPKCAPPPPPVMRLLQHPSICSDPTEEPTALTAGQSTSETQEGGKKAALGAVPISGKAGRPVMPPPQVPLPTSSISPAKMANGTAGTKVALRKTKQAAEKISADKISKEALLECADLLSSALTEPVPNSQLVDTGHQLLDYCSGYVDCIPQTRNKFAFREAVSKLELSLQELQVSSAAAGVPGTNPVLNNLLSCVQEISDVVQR
Chain of PIK3CA(E542K) (P42336 whole entry E542K): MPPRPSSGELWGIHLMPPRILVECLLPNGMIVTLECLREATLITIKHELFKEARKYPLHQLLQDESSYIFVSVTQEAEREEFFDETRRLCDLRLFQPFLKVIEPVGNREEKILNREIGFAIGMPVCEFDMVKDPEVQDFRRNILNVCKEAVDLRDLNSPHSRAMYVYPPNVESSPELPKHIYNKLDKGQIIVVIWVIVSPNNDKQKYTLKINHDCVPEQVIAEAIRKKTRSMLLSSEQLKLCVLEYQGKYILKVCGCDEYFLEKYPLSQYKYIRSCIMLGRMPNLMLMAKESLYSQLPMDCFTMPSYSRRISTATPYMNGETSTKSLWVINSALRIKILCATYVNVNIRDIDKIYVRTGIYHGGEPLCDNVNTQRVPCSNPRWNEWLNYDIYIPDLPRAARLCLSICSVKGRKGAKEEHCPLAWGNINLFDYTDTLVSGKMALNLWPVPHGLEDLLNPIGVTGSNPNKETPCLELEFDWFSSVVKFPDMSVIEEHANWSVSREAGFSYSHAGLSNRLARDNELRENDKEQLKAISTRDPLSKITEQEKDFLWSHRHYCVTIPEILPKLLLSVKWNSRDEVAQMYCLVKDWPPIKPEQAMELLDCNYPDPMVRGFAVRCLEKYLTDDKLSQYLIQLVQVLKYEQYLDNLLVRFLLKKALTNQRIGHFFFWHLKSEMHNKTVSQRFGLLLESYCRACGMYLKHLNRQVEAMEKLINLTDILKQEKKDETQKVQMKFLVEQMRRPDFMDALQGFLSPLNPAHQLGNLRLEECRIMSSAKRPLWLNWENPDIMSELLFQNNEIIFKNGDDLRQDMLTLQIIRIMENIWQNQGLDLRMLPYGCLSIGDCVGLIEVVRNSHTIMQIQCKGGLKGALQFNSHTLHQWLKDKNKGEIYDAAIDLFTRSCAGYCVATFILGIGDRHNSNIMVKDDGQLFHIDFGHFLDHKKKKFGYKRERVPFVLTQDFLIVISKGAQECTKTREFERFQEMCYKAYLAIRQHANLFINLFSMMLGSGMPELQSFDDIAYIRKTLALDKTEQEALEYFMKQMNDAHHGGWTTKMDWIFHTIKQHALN
T3 sequence (P23458 whole entry): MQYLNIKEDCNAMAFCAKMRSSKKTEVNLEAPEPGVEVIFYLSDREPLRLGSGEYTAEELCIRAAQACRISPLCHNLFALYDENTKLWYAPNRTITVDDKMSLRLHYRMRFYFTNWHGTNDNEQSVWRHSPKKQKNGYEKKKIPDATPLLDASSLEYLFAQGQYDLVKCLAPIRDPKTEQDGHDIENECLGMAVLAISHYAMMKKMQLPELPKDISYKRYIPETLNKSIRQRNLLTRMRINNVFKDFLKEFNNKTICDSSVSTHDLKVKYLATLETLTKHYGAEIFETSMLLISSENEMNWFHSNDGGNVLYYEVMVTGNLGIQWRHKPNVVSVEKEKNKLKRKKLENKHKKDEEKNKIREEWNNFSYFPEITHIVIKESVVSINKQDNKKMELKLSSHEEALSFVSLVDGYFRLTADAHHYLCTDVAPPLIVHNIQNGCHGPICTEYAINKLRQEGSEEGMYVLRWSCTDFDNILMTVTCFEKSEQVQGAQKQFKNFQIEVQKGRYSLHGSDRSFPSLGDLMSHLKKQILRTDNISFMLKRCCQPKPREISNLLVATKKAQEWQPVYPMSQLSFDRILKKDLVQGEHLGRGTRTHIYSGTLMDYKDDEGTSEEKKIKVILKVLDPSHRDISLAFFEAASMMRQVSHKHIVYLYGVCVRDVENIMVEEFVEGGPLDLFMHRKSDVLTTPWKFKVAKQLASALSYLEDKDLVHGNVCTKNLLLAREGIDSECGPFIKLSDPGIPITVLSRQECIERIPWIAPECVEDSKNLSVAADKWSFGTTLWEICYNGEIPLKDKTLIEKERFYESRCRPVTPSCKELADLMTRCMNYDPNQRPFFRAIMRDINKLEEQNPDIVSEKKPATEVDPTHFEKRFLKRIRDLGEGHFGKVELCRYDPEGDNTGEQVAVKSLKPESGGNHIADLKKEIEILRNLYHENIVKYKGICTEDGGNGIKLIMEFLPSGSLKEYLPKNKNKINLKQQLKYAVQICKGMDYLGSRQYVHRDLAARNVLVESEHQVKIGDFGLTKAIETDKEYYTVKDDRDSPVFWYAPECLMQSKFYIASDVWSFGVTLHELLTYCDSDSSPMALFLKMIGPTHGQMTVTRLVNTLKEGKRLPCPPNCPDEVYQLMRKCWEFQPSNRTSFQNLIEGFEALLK
T2 sequence (P23443 whole entry): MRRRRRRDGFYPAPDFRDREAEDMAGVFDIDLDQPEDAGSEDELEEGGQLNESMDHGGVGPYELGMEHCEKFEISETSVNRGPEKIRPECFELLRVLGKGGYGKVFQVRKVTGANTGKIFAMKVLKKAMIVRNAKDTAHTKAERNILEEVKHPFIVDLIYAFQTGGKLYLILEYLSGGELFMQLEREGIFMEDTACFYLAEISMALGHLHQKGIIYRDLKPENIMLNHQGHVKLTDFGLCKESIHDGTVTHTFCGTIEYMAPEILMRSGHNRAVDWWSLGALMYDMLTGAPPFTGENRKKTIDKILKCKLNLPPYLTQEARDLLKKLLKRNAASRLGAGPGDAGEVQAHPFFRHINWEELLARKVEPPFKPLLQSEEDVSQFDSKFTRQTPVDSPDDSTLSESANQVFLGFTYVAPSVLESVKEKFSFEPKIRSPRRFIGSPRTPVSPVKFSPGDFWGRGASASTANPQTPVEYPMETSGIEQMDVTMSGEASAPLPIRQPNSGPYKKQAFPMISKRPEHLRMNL
Chain of PIK3CA(H1047Y) (P42336 whole entry H1047Y): as the sequence (P42336 whole entry E542K) above, with K542E, H1047Y counted along it
Chain of AKT1 (P31749 whole entry): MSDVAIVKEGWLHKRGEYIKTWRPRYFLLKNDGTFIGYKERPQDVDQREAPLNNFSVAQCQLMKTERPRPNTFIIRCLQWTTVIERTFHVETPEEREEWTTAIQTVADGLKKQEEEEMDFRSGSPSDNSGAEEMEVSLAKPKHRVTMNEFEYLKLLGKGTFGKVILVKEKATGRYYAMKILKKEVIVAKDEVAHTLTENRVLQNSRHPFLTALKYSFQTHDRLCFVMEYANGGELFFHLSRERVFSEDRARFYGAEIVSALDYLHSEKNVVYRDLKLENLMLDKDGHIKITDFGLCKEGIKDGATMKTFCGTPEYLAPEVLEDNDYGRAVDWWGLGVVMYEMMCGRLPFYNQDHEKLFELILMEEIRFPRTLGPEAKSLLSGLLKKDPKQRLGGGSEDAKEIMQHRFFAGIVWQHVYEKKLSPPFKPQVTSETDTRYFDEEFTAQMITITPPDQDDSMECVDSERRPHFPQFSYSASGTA

Q: How did the remaining binding at 1 µM (PIK3CA(E542K)) turn out when Cn1c(=O)[nH]c2ccc(-c3cccc(C(=O)NC4CCn5ccnc5C4)c3)cc21 (stereo not drawn) [Z36-MP5] was run?
A: Its remaining binding at 1 µM is 70%.

Q: And the remaining binding at 1 µM (YSK1)?
A: Its remaining binding at 1 µM is 98%.

Q: What about the remaining binding at 1 µM (AKT1) of the same compound?
A: Its remaining binding at 1 µM is 95%.

Q: What about the remaining binding at 1 µM (LTK) of the same compound?
A: The remaining binding at 1 µM was 82%.

Q: What about the remaining binding at 1 µM (AXL) of the same compound?
A: Its remaining binding at 1 µM is 94%.

Q: And the remaining binding at 1 µM (MAP4K5)?
A: The remaining binding at 1 µM was 39%.

Q: What about the remaining binding at 1 µM (FLT3(ITD,F691L)) of the same compound?
A: Its remaining binding at 1 µM is 57%.

Q: And the remaining binding at 1 µM (MAST1)?
A: Its remaining binding at 1 µM is 72%.

Q: And the remaining binding at 1 µM (RIPK1)?
A: Its remaining binding at 1 µM is 87%.

Q: And the remaining binding at 1 µM (PRKCQ)?
A: The remaining binding at 1 µM was 86%.

Q: What about the remaining binding at 1 µM (RET(M918T)) of the same compound?
A: The remaining binding at 1 µM was 90%.

Q: And the remaining binding at 1 µM (PIK3CA(H1047Y))?
A: Its remaining binding at 1 µM is 91%.

Q: And the remaining binding at 1 µM (ABL2)?
A: The remaining binding at 1 µM was 98%.

Q: What about the remaining binding at 1 µM (S6K1) of the same compound?
A: Its remaining binding at 1 µM is 50%.

Q: What about the remaining binding at 1 µM [1] of the same compound?
A: Its remaining binding at 1 µM is 51%.

Q: And the remaining binding at 1 µM (PDPK1)?
A: The remaining binding at 1 µM was 97%.

Q: What about the remaining binding at 1 µM (TIE2) of the same compound?
A: Its remaining binding at 1 µM is 58%.

Q: And the remaining binding at 1 µM [2]?
A: The remaining binding at 1 µM was 93%.

Q: And the remaining binding at 1 µM (KIT(V559D))?
A: The remaining binding at 1 µM was 90%.

Q: And the remaining binding at 1 µM (PRKCH)?
A: Its remaining binding at 1 µM is 52%.

Q: What about the remaining binding at 1 µM (PAK7) of the same compound?
A: The remaining binding at 1 µM was 92%.

Q: What about the remaining binding at 1 µM (ULK3) of the same compound?
A: The remaining binding at 1 µM was 71%.

Q: And the remaining binding at 1 µM (ASK1)?
A: The remaining binding at 1 µM was 75%.

Q: And the remaining binding at 1 µM (PAK2)?
A: The remaining binding at 1 µM was 63%.
